Assay results reported in US7795206B2, “Peptide that inhibits janus kinase” (YM Biosciences Australia Pty Ltd, priority 2001, dated 2010).

Tests used:
[1] = system: wild-type Ba/F3 cells grown upon IL-3; test: Ba/F3 proliferation assay (IL-3 dependent growth, MTT); assay type: cell-based, murine; settings: peptide 1 μM to 100 μM in PBS; cell number after three days by MTT assay; FIG. 5
Procedure: FIG. 5. Ba/F3 cell assay: Inhibition of the growth of the IL-3 dependent growth of Ba/F3 cells has been brought about by the addition of a peptide derived from JAK2 PSL. PSLShort PAEFMRMI (SEQ ID NO:15) and PSLControl SPSKFRMPEAMIGND (SEQ ID NO:16) were added at concentrations ranging from IμM to 100 μM in phosphate buffered saline. Cell number after three days was measured by an MTT assay.
These peptides were tested for biological activity by means of a proliferation assay using the murine growth factor dependent hematopoietic cell line Ba/F3. On the basis of our hypothesis of the role of how the PSL region might work, we reasoned that if these peptides were to supplant the PSL from the KLD of JAK2, then the JAK PTK activity would thereby either become unregulated, resulting in a IL-3 independent growth phenotype, or the normal IL-3 dependent growth of these cells would be inhibited. […] We hypothesize that the activity of the PSLshort peptide was dependent upon the presence of the JAK2 KLD, and conclude that its mode of action is by displacement of the PSL of JAK2 from the JAK2 KLD, resulting in unprimed JAK2 molecules that cannot be triggered by IL-3. […]
The murine hematopoietic cell line Ba/F3 was grown in the presence of IL-3. […] Cell number after three days was measured by an MTT assay.

[2] = system: Ba/F3 cells transformed to factor independence by ectopic expression of TEL/JAK2 fusion; test: Ba/F3 proliferation assay, cells transformed to factor independence by TEL/JAK2; assay type: cell-based, murine; settings: oncogenic JAK2 (PTK domain fused to PNT domain of TEL); FIG. 5

Sequence: PAEFMRMI (homo sapiens) [PSLshort]
- inhibition of growth of wild-type Ba/F3 cells grown upon IL-3 [1]: able to inhibit growth
- inhibition of growth of Ba/F3 cells transformed to factor independence by TEL/JAK2 [2]: unable to inhibit
